Results from patent US9221822B2, “Thiazolopyrimidine modulators as immunosuppressive agents” (Katholieke Universiteit Leuven, K.U.Leuven R&D, priority 2009, dated 2015).

Tested on: Human peripheral blood mononuclear cells (PBMCs) as Responder cells, RPMI 1788 Stimulator cells
Test: Mixed Lymphocyte Reaction (MLR) test
Format: cell-based
Conditions: 6 days coculture, 3H-thymidine incorporation
Procedure, shortened: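 Human PBMC responders (0.12×10^6) were cocultured 6 days with mitomycin C-treated RPMI 1788 stimulators (0.045×10^6) and compound in RPMI 1640 with 10% FCS, in triplicate. A ^3H-thymidine pulse on day 5, harvested 18 h later, measured proliferation (cpm), converted to % inhibition versus a compound-free MLR.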

[1] = Homo sapiens, RPMI-1788, lowest concentration giving 50% inhibition of the MLR
[2] = lowest concentration giving 50% inhibition of the MLR

Compound	IC50 [1] [µM]	IC50 [2] [µM]
Nc1nc(N2CCN(C(=O)COc3ccc(Cl)cc3)CC2)c2nc(-c3ccc(Cl)c(Cl)c3)sc2n1 [Example 116, 5-amino-7-[4-(4-chlorophenoxyacetyl)piperazin-1-yl]-2-(3,4-dichlorophenyl)thiazolo[5,4-d]pyrimidine]	5.29	
Nc1nc(N2CCN(C(=O)COc3ccc(Cl)cc3)CC2)c2nc(Nc3ccc(F)cc3)sc2n1 [Example 127, 5-amino-7-[4-(4-chlorophenoxyacetyl)piperazin-1-yl]-2-(4-fluorophenylamino)-thiazolo[5,4-d]pyrimidine]	6.77	
Nc1nc(N2CCN(c3nccs3)CC2)c2nc(-c3ccc(F)cc3)sc2n1 [Example 36, 2-(4-fluorophenyl)-7-(4-(thiazol-2-yl)piperazin-1-yl)thiazolo[5,4-d]pyrimidin-5-amine]	> 10	
COc1ccc(CNC(=O)N2CCN(c3nc(N)nc4sc(-c5cccnc5)nc34)CC2)cc1 [Example 278, 4-(5-amino-2-(pyridin-3-yl)thiazolo[5,4-d]pyrimidin-7-yl)-N-(4-methoxybenzyl)piperazine-1-carboxamide]	0.08	
Nc1nc(N2CCN(C(=O)Cc3ccc(Cl)cc3)CC2)c2nc(CCc3ccc(F)cc3)oc2n1 [Example 194, 5-amino-2-[2-(4-fluorophenyl)ethyl]-7-(4-[2-(4-chlorophenyl)acetyl]-piperazin-1-yl)-oxazolo[5,4-d]pyrimidine]	9.04	
Nc1nc(N2CCN(C(=O)COc3ccc(Cl)cc3)CC2)c2nc(-c3ccc[n+]([O-])c3)sc2n1 [Example 121b, 5-amino-7-[4-(4-chlorophenoxyacetyl)piperazin-1-yl]-2-(N-oxopyridine-3-yl)thiazolo[5,4-d]pyrimidine]		0.83
Nc1nc(N2CCC(C(=O)c3ccccc3)CC2)c2nc(CCc3ccc(F)cc3)sc2n1 [Example 148, 5-amino-2-[2-(4-fluorophenyl)ethyl]-7-(4-benzoylpiperidine-1-yl)-thiazolo[5,4-d]pyrimidine]	2.61	
Nc1nc(N2CCN(C(=O)COc3ccc(Cl)cc3)CC2)c2nc(-c3ccc(Br)cc3)[nH]c2n1 [Example 391, 1-(4-(2-amino-8-(4-bromophenyl)-9H-purin-6-yl)piperazin-1-yl)-2-(4-chlorophenoxy)ethanone]	0.26	
Nc1nc(N2CCN(C(=O)Nc3ccc(F)cc3F)CC2)c2nc(-c3ccc(F)cc3)sc2n1 [Example 217, 4-(5-amino-2-(4-fluorophenyl)thiazolo[5,4-d]pyrimidin-7-yl)-N-(2,4-difluorophenyl)piperazine-1-carboxamide]	0.345	
CC(c1ccc(F)cc1)c1nc2c(N3CCN(C(=O)COc4ccc(Cl)cc4)CC3)nc(N)nc2s1 (centres unmarked) [Example 66, 1-(4-(5-amino-2-(1-(4-fluorophenyl)ethyl)thiazolo[5,4-d]pyrimidin-7-yl)piperazin-1-yl)-2-(4-chlorophenoxy)ethanone]	4.38	
Nc1nc(N2CCN(S(=O)(=O)Cc3ccccc3)CC2)c2nc(-c3ccc(F)cc3)[nH]c2n1 [Example 405, 6-(4-(benzylsulfonyl)piperazin-1-yl)-8-(4-fluorophenyl)-9H-purin-2-amine]	> 10	
Nc1nc(N2CCN(C(=O)Cc3cccs3)CC2)c2nc(-c3ccc(F)cc3)[nH]c2n1 [Example 403, 1-(4-(2-amino-8-(4-fluorophenyl)-9H-purin-6-yl)piperazin-1-yl)-2-(thiophen-2-yl)ethanone]	7.08	
Nc1nc(N2CCN(C(=O)COc3ccc(Br)cc3)CC2)c2nc(-c3ccc(F)cc3)sc2n1 [Example 128, 5-amino-2-(4-fluorophenyl)-7-(4-[2-(4-bromophenoxy)acetyl]-piperazin-1-yl)-thiazolo[5,4-d]pyrimidine]		0.38
Nc1nc(N2CCN(S(=O)(=O)Cc3ccccc3)CC2)c2nc(CCc3ccc(F)cc3)sc2n1 [Example 137, 5-amino-2-[2-(4-fluorophenyl)ethyl]-7-[4-phenylmethanesulfonylpiperazin-1-yl]-thiazolo[5,4-d]pyrimidine]	6.68	
